Data set [1] concerns Hepatotoxicity. Nature of the data set: Literature-mined compound from Fourches et al multi-species drug-induced liver injury (DILI) dataset, effect in humans. As to conditions: human.
The test system of data set [2] is Hepatotoxicity. The data set can be described thus: Literature-mined compound from Fourches et al multi-species drug-induced liver injury (DILI) dataset, effect in rodents. As to conditions: rodentia.
Data set [3] deals with Hepatotoxicity. Nature of the data set: Literature-mined compound from Fourches et al multi-species drug-induced liver injury (DILI) dataset, effect in non-rodents.

Regarding `Cc1ccc(C(=O)c2cc(O)c(O)c([N+](=O)[O-])c2)cc1` [TOLCAPONE], the Hepatotoxicity entry is recorded as “drug-induced liver injury reported” in the data set on Hepatotoxicity [1] (Liver), “drug-induced liver injury reported” in the data set with Hepatotoxicity [2] (Liver) and “no drug-induced liver injury reported” in the data set on Hepatotoxicity [3] (Liver).
For `Cc1ccc(C(=O)C(C)CN2CCCCC2)cc1` (stereo not given) [TOLPERISONE], the Hepatotoxicity entry was “drug-induced liver injury reported” with Hepatotoxicity [1], “no drug-induced liver injury reported” with Hepatotoxicity [2] and “no drug-induced liver injury reported” with Hepatotoxicity [3].
Take `Cc1ccc(O)c([C@H](CCN(C(C)C)C(C)C)c2ccccc2)c1` [TOLTERODINE]: the Hepatotoxicity result was “drug-induced liver injury reported” with Hepatotoxicity [1], “no drug-induced liver injury reported” with Hepatotoxicity [2] and “no drug-induced liver injury reported” in the data set with Hepatotoxicity [3].
As for `CC1(C)O[C@@H]2[C@@H](CO[C@@]3(COS(N)(=O)=O)OC(C)(C)O[C@@H]23)O1` [TOPIRAMATE], the Hepatotoxicity entry in the data set on Hepatotoxicity [1] is listed as “drug-induced liver injury reported”; with Hepatotoxicity [2], “no drug-induced liver injury reported”; in the data set on Hepatotoxicity [3], “no drug-induced liver injury reported”.
For `CN(C)CCOc1ccc(/C(=C(/CCCl)c2ccccc2)c2ccccc2)cc1` [TOREMIFENE], the results for the Hepatotoxicity result in the data set on Hepatotoxicity [1], in the data set with Hepatotoxicity [2] and in the data set on Hepatotoxicity [3] were “drug-induced liver injury reported”, “drug-induced liver injury reported” and “no drug-induced liver injury reported”, respectively.
In the case of `COc1cc2c(cc1O)CCN[C@]21CS[C@@H]2c3c(OC(C)=O)c(C)c4c(c3[C@H](COC1=O)N1[C@@H]2[C@H]2c3c(cc(C)c(OC)c3O)C[C@@H]([C@@H]1O)N2C)OCO4` [TRABECTEDIN], the Hepatotoxicity entry was “drug-induced liver injury reported” in the data set with Hepatotoxicity [1], “drug-induced liver injury reported” in the data set on Hepatotoxicity [2] and “no drug-induced liver injury reported” in the data set with Hepatotoxicity [3].
Regarding `COc1cccc(C2(O)CCCCC2CN(C)C)c1` (stereo not given) [TRAMADOL], the values for the Hepatotoxicity result in the data set on Hepatotoxicity [1], with Hepatotoxicity [2] and in the data set with Hepatotoxicity [3] were “drug-induced liver injury reported”, “drug-induced liver injury reported” and “no drug-induced liver injury reported”, respectively.
On to `CCOC(=O)[C@H](CCc1ccccc1)N[C@@H](C)C(=O)N1[C@H](C(=O)O)C[C@H]2CCCC[C@@H]21` [TRANDOLAPRIL], for which the Hepatotoxicity result in the data set with Hepatotoxicity [1] is on record as “drug-induced liver injury reported”; in the data set on Hepatotoxicity [2], “no drug-induced liver injury reported”; in the data set with Hepatotoxicity [3], “no drug-induced liver injury reported”.
In the case of `N[C@@H]1C[C@H]1c1ccccc1.N[C@H]1C[C@@H]1c1ccccc1` [TRANYLCYPROMINE], the Hepatotoxicity result in the data set with Hepatotoxicity [1] (Liver), in the data set with Hepatotoxicity [2] (Liver) and in the data set on Hepatotoxicity [3] (Liver) was “drug-induced liver injury reported” throughout.
Take `O=c1n(CCCN2CCN(c3cccc(Cl)c3)CC2)nc2ccccn12` [TRAZODONE]: the Hepatotoxicity result in the data set on Hepatotoxicity [1] is recorded as “drug-induced liver injury reported”; in the data set on Hepatotoxicity [2] it was “no drug-induced liver injury reported”; in the data set with Hepatotoxicity [3], “no drug-induced liver injury reported”.
As to `CC1=C(/C=C/C(C)=C/C=C/C(C)=C/C(=O)O)C(C)(C)CCC1` [TRETINOIN], the Hepatotoxicity entry in the data set with Hepatotoxicity [1] is “drug-induced liver injury reported”; in the data set on Hepatotoxicity [2] it was “drug-induced liver injury reported”; in the data set on Hepatotoxicity [3], “no drug-induced liver injury reported”.
Turning to `CC1(C)O[C@@H]2C[C@H]3[C@@H]4CCC5=CC(=O)C=C[C@]5(C)[C@@]4(F)[C@@H](O)C[C@]3(C)[C@]2(C(=O)CO)O1` [TRIAMCINOLONE ACETONIDE], the Hepatotoxicity result is recorded as “no drug-induced liver injury reported” in the data set on Hepatotoxicity [1], “drug-induced liver injury reported” in the data set on Hepatotoxicity [2] and “no drug-induced liver injury reported” in the data set on Hepatotoxicity [3].
`C[C@]12C=CC(=O)C=C1CC[C@H]1[C@@H]3C[C@@H](O)[C@](O)(C(=O)CO)[C@@]3(C)C[C@H](O)[C@@]12F` [TRIAMCINOLONE]: the Hepatotoxicity result with Hepatotoxicity [1] is listed as “no drug-induced liver injury reported”; in the data set on Hepatotoxicity [2], “drug-induced liver injury reported”; in the data set with Hepatotoxicity [3] it was “no drug-induced liver injury reported”.
For `COP(=O)(OC)C(O)C(Cl)(Cl)Cl` (stereo not given) [TRICHLORFON], the results for the Hepatotoxicity entry with Hepatotoxicity [1], with Hepatotoxicity [2] and in the data set on Hepatotoxicity [3] were “no drug-induced liver injury reported”, “drug-induced liver injury reported” and “no drug-induced liver injury reported”, respectively.
`O=C(O)C(Cl)(Cl)Cl` [TRICHLOROACETIC ACID]: the Hepatotoxicity result in the data set on Hepatotoxicity [1] is reported as “no drug-induced liver injury reported”; with Hepatotoxicity [2], “drug-induced liver injury reported”; with Hepatotoxicity [3] it was “no drug-induced liver injury reported”.
For the molecule `ClC=C(Cl)Cl` [TRICHLOROETHYLENE], the results for the Hepatotoxicity entry with Hepatotoxicity [1], in the data set on Hepatotoxicity [2] and with Hepatotoxicity [3] were “drug-induced liver injury reported”, “drug-induced liver injury reported” and “no drug-induced liver injury reported”, respectively.
For the molecule `Oc1cc(Cl)ccc1Oc1ccc(Cl)cc1Cl` [TRICLOSAN], the Hepatotoxicity entry in the data set with Hepatotoxicity [1] is “no drug-induced liver injury reported”; in the data set on Hepatotoxicity [2] it was “drug-induced liver injury reported”; with Hepatotoxicity [3] it was “no drug-induced liver injury reported”.
For the molecule `COc1ccc(CN2CCNCC2)c(OC)c1OC` [TRIMETAZIDINE], the Hepatotoxicity entry is given as “drug-induced liver injury reported” with Hepatotoxicity [1], “drug-induced liver injury reported” in the data set on Hepatotoxicity [2] and “no drug-induced liver injury reported” in the data set on Hepatotoxicity [3].
With `CN1C(=O)OC(C)(C)C1=O` [TRIMETHADIONE], the Hepatotoxicity result is reported as “drug-induced liver injury reported” in the data set with Hepatotoxicity [1], “drug-induced liver injury reported” with Hepatotoxicity [2] and “no drug-induced liver injury reported” in the data set on Hepatotoxicity [3].
Turning to `CC1(C)C2CCC1(CS(=O)(=O)[O-])C(=O)C2.O=C1N(Cc2ccccc2)C2C[S+]3CCCC3C2N1Cc1ccccc1` (stereo not given) [TRIMETHAPHAN CAMSYLATE], the Hepatotoxicity result in the data set with Hepatotoxicity [1] is “no drug-induced liver injury reported”; in the data set with Hepatotoxicity [2], “no drug-induced liver injury reported”; in the data set with Hepatotoxicity [3], “drug-induced liver injury reported”.
As for `COc1cc(Cc2cnc(N)nc2N)cc(OC)c1OC` [TRIMETHOPRIM], the Hepatotoxicity result is reported as “drug-induced liver injury reported” with Hepatotoxicity [1] (Liver), “drug-induced liver injury reported” in the data set on Hepatotoxicity [2] (Liver) and “no drug-induced liver injury reported” in the data set with Hepatotoxicity [3] (Liver).
For `Cc1c(C)c2c(c(C)c1O)CCC(C)(COc1ccc(CC3SC(=O)NC3=O)cc1)O2` (stereo not given) [TROGLITAZONE], the Hepatotoxicity entry in the data set on Hepatotoxicity [1], with Hepatotoxicity [2] and with Hepatotoxicity [3] was “drug-induced liver injury reported” throughout.
With `CO[C@H]1C[C@H](O[C@H]2[C@H](C)[C@@H](O[C@@H]3O[C@H](C)C[C@H](N(C)C)[C@H]3OC(C)=O)[C@@H](C)C[C@@]3(CO3)C(=O)[C@H](C)[C@@H](OC(C)=O)[C@@H](C)[C@@H](C)OC(=O)[C@@H]2C)O[C@@H](C)[C@@H]1OC(C)=O` [TROLEANDOMYCIN], the Hepatotoxicity result with Hepatotoxicity [1], with Hepatotoxicity [2] and in the data set on Hepatotoxicity [3] was “drug-induced liver injury reported” each time.
Consider `Cc1cc(-c2ccc(/N=N/c3c(S(=O)(=O)[O-])cc4cc(S(=O)(=O)[O-])cc(N)c4c3O)c(C)c2)ccc1/N=N/c1c(S(=O)(=O)[O-])cc2cc(S(=O)(=O)[O-])cc(N)c2c1O.[Na+].[Na+].[Na+].[Na+]` [TRYPAN BLUE], for which the Hepatotoxicity entry is on record as “no drug-induced liver injury reported” in the data set with Hepatotoxicity [1], “drug-induced liver injury reported” in the data set with Hepatotoxicity [2] and “no drug-induced liver injury reported” with Hepatotoxicity [3].
In the case of `N[C@@H](Cc1c[nH]c2ccccc12)C(=O)O` [TRYPTOPHAN], the Hepatotoxicity entry with Hepatotoxicity [1] was “no drug-induced liver injury reported”; in the data set on Hepatotoxicity [2] it was “drug-induced liver injury reported”; in the data set with Hepatotoxicity [3] it was “no drug-induced liver injury reported”.
Turning to `COC1=C(OC)C(=O)C(C/C=C(\C)CC/C=C(\C)CC/C=C(\C)CC/C=C(\C)CC/C=C(\C)CC/C=C(\C)CC/C=C(\C)CC/C=C(\C)CC/C=C(\C)CCC=C(C)C)=C(C)C1=O` [UBIDECARENONE], the results for the Hepatotoxicity entry in the data set on Hepatotoxicity [1], in the data set with Hepatotoxicity [2] and in the data set with Hepatotoxicity [3] were “no drug-induced liver injury reported”, “drug-induced liver injury reported” and “no drug-induced liver injury reported”, respectively.
As for `O=c1cc[nH]c(=O)[nH]1` [URACIL], the Hepatotoxicity entry was “drug-induced liver injury reported” with Hepatotoxicity [1], “drug-induced liver injury reported” with Hepatotoxicity [2] and “no drug-induced liver injury reported” in the data set on Hepatotoxicity [3].
On to `NC(N)=O` [UREA], for which the figures for the Hepatotoxicity entry in the data set with Hepatotoxicity [1], in the data set with Hepatotoxicity [2] and in the data set on Hepatotoxicity [3] were “no drug-induced liver injury reported”, “drug-induced liver injury reported” and “no drug-induced liver injury reported”, respectively.
For the molecule `O=c1ccn([C@@H]2O[C@H](CO)[C@@H](O)[C@H]2O)c(=O)[nH]1` [URIDINE], the Hepatotoxicity entry was “drug-induced liver injury reported” in the data set on Hepatotoxicity [1], “drug-induced liver injury reported” in the data set on Hepatotoxicity [2] and “no drug-induced liver injury reported” in the data set on Hepatotoxicity [3].
In the case of `C[C@H](CCC(=O)O)[C@H]1CC[C@H]2[C@@H]3[C@@H](O)C[C@@H]4C[C@H](O)CC[C@]4(C)[C@H]3CC[C@]12C` [URSODIOL], the Hepatotoxicity result with Hepatotoxicity [1], in the data set with Hepatotoxicity [2] and in the data set with Hepatotoxicity [3] was “drug-induced liver injury reported” throughout.
